# How the values were obtained:
# [1] = test system: primary mouse peritoneal macrophages; experiment: LPS-induced cytokine production in peritoneal macrophages; assay type: cell-based; details: LPS 1 μg/ml; 1~100 μM; 24 hours
# Experimental: FIG. 7A-F are bar graphs showing that LY303511 inhibits lipopolysaccharide (LPS)—induced cytokine production or STAT1 activity in primary mouse peritoneal macrophages or A549 cells. Wild-type mice from Jackson (Jac) and Taconic (Tac) were used. Peritoneal macrophages were harvested three days after thioglycolate injection. Cells were incubated for three days in 2% FCS RPMI. The supernatant was collected after stimulation with LPS 1 μg/ml with or without LY 303511 (1˜100 μM) or DMSO for 24 hours. Cytokines (interleukin (IL)-12p70, tumor necrosis factor (TNF)-α, interferon (IFN)-γ, MCP-1, IL-10, IL-6) were measured in cell supematants. […] Thus, LY303511 clearly can reduce cytokine expression, and has an anti-inflammatory effect.
# Peritoneal macrophages were harvested three days after thioglycolate injection. Cells were incubated for three days in 2% FCS RPM. The supernatant was collected after stimulation with LPS 1 μg/ml with or without LY 303511 (1˜100 μM) or DMSO for 24 hours. Cytokines (interleukin (IL)-12p70, tumor necrosis factor (TNF)-α, interferon (IFN)-γ, monocyte chemoattractant protein (MCP)-1, IL-10, IL-6) were measured in cell supernatants. […] Thus, LY303511 clearly can reduce cytokine expression, and has an anti-inflammatory effect.
# [2] = test system: mTOR; experiment: Western blot of phospho-mTOR S2481 (autophosphorylation) in A549 cells; assay type: cell-based, human; details: 0-100 μM LY303511, LPS/IFN-γ
# Experimental: Cells were reacted with 0-100 μM LY303511 for 1 hour before addition of L/I for 30 min and preparation of cell lysates. Samples (70 μg) of proteins were separated by SDS-PAGE and transferred to nitrocellulose membranes before immunodetection of phospho-p70 S6 kinase T389 (pS6K), phospho-Akt S473 (pAkt), total p70 S6 kinase (S6K), total Akt (Akt), phospho-mTOR S2481 (pmTOR), or total mTOR (mTOR) by Western blot. Positions of protein standards (kDa) are on the right. For the bar graph and digital images shown in FIG. 1D, band density measurements were also represented graphically. Integrated band densities for pmTOR were normalized to those of total mTOR. […]
# A549 cells were treated without or with 100 mcM LY303511, 200 ng/ml rapamycin, or 50 nM wortmannin in serum free media for 1 hour before addition of E. coli lipopolysaccharide (LPS), 1000 mcglml and interferon (IFN)-γ, 100 U/ml (LPS/IFN-γ or “L/I”). Cells were homogenized and the indicated proteins (see Table 1) were detected by Western blot. […]
# Measurement of protein phosphorylation: A549 cells were incubated in serum-free medium without or with inhibitors for 1 hour, as indicated, before incubation for 30 minutes with a mixture of LPS, 100 μg/ml (Sigma; St. Louis, Mo.) and IFN-γ, 100 U/ml (Roche; Nutley, N.J.). […] Integrated band densities were quantified using Scion Image beta 3b software.
smiles,measurement,setting,value
"O=c1cc(N2CCNCC2)oc2c(-c3ccccc3)cccc12 [LY303511, 2-(4-piperazinyl)-8-phenyl-4H-1-benzopyran-4-one]","LPS-induced cytokines (IL-12p70, TNF-α, IFN-γ, MCP-1, IL-10, IL-6) in cell supernatants",[1],dose-dependent reduction of all six cytokines
same,autophosphorylation of mTOR (S2481),[2],inhibits autophosphorylation of mTOR in a concentration-dependent fashion

# Source: US8044057B2, “Methods for suppressing an immune response or treating a proliferative disorder” (The United States of America as represented by the …, priority 2003, dated 2011)
